Assay results reported in article PMC12731105, “Design and Synthesis of New Quinoxaline Analogs to Regenerate Sensory Auditory Hair Cells” (Cells, 2025).
Values after ≈ are worked out from the molar mass of the structure shown.

Experiments:
Kinetic solubility assay = format: physicochemical; details: for solubility at 6 h: physiological buffer, pH 7.4, kinetic solubility, physiological buffer pH 7.4, room temperature, six hours
Description: A stock solution of each active compound in DMSO (10 mg/mL) was prepared and diluted into physiological buffer (pH 7.4) to a concentration of 100 µg/mL, and the mixture was left at room temperature for six hours. After six hours, the sample was centrifuged, and the supernatant was diluted with a methanol-water solution containing an internal standard (IS). The calibration curve was established using seven-point standards prepared by serial dilution in a range that the unknown sample signal would likely fall in and precisely simulating the sample preparation process. The standards and samples were quantified using LC-MS/MS, and unknown concentrations were back-calculated from the calibration curve.

HEI-OC1 cells = assay: TACS MTT cell proliferation / metabolic activity assay in HEI-OC1; format: cell-based, mouse; details: for Metabolic activity throughout all concentrations: 0.1–100 μM, throughout all concentrations and cell lines; for Proliferative effect vs Qx-70 and untreated cells: HEI-OC1, TACS MTT
Description: HEI-OC1 cells derived from the mouse OC (kindly provided by Dr. F. Kalinec) were cultured under permissive conditions (33 °C, 10% CO2) as described in [22]. Additionally, we assessed the activity of Qx-derived compounds in the mouse neuroblastoma cell line, Neuro-2A, and the human fibrosarcoma HT-1080 (ATCC, Manassas, VA, USA) following the standard cell culture guidelines provided by the vendor.
In vitro cell proliferation effects of all ten initial compounds (Figure 1A,B) were tested on HEI-OC1, Neuro-2A and HT-1080 cells by TACS® 3-(4,5-dimethylthiazol-2-yl)-2,5-diphenyltetrazolium bromide (MTT) Cell Proliferation Assay (R&D Systems, Minneapolis, MN, USA, 4890-025-K), following the manufacturer’s protocol. Absorbance was measured with SpectraMax® M Series Multi-Mode Microplate Reader with Soft Max Pro 7.2 GxP Software (Molecular Devices, Sunnyvale, CA, USA), and the average OD in control cells was taken as 100% of viability. Upon selecting the most viable compounds (Qx-294 and Qx-301), we proceeded with in vivo experiments. For zebrafish treatment, animals were incubated for varied times with different concentrations (50, 100, 150, 200, 250, and 300 μg/mL) of Qx-294 or Qx-301 diluted in swimming (E3) media or administered via IP injections. Mice treatment followed the same procedures as described in [18]. Following treatment, animals or tissue samples were incubated in Click-it EdU or Click-it Plus TUNEL kits (Thermo Scientific, Waltham, MA, USA), following the manufacturer’s instructions to label proliferating and apoptotic cells, respectively.

[1] = tested on: zebrafish neuromast cells; assay: TUNEL assay in zebrafish neuromasts; format: in vivo, zebrafish (Danio rerio); details: 6 h incubation, any concentration tested
Description: Absorbance was measured with SpectraMax® M Series Multi-Mode Microplate Reader with Soft Max Pro 7.2 GxP Software (Molecular Devices, Sunnyvale, CA, USA), and the average OD in control cells was taken as 100% of viability. […] Mice treatment followed the same procedures as described in [18]. Following treatment, animals or tissue samples were incubated in Click-it EdU or Click-it Plus TUNEL kits (Thermo Scientific, Waltham, MA, USA), following the manufacturer’s instructions to label proliferating and apoptotic cells, respectively.

mouse organ of Corti HCs = assay: M7a immunolabeling and HC counts in the mouse organ of Corti; format: in vivo; details: mice, single IP 300 mg/kg; for OHC and IHC numbers vs control, 48–72 h: p < 0.05; for Supernumerary M7a-positive cells vs control, 24 h: 24 h post-treatment; for HC numbers in the apex: apical turn
Description: C57BL/6J male and female mice between postnatal day 24 and 30 P-24-30) were randomized into control and experimental groups (9 mice per group per compound), with each experimental group receiving a single intraperitoneal (IP) injection of Qx-294 or Qx-301 at a dose of 300 mg/kg body weight, dissolved in dimethyl sulfoxide (DMSO). Controls consisted of treatment with DMSO alone (vehicle). A total of 90 adult wild-type C57/BL6 mice were used in this study. Based on the analysis, animals were examined at various times following treatment as described below.
Cochlear dissection in mice and immunofluorescence experiments on zebrafish neuromasts and mouse cochleae were performed as previously described. The antibody and labeling kits used in this study included Otoferlin (Developmental Studies Hybridoma Bank, Iowa City, IA, USA, HCS-1), GFP (Novus Biologicals, NB100-1614), and rabbit anti-myosin VIIa (M7a) (Thermo Scientific, Waltham, MA, USA, PA1-936). Species-specific Alexa Fluor-conjugated secondary antibodies were used for detection. Phalloidin conjugated to Alexa 488 (Thermo Scientific, Waltham, MA, USA, O7466) and DAPI were used for labeling stereocilia and the nucleus, respectively.
Cell numbers in mouse cochleae or fish, as well as fish neuromast morphologies, were evaluated in 25 zebrafish per drug and treatment group across three experimental runs. For mouse analyses, 18 cochleae (from 9 mice) per treatment and three experimental repetitions were examined. Images were analyzed at 200X magnification, obtained from different neuromasts and cochlear regions (apex, middle, and base). HCs were quantified in the mouse OC by counting M7a-positive cells, with HC identity further confirmed by phalloidin-labeled stereocilia. Apoptosis and cell proliferation events, on the other hand, were quantified by counting TUNEL- and EdU-positive cells, respectively. Counts were obtained from three randomly selected microscopic fields for each cochlear region, covering at least 1200 μm in total. The number of HCs (IHCs and OHCs) is expressed as units per 200 μm. Cell counting was performed in a double-blind and unbiased manner. A laboratory member conducted the experiments, while another person, who was unaware of the treatment groups to which the cochlea belonged, performed the cell counts. IHCs and OHCs were counted on reconstructed confocal stacks using NIH ImageJ v1.8.0 software. The presence of an HC was defined as an intact, spherical nucleus located in the basal half of an M7a-positive cell. The same person who performed the initial counts recounted a select group of cochleae to determine an intra-rater reliability measure. We used intra-class correlations (ICC) to assess the reliability of the data sets. Reliability statistics were calculated in SPSS v22.0. We used an intra-class correlation coefficient of ≥0.7 to measure strong absolute agreement between the two sets of HC counts being compared. Statistical comparisons between animal groups and treatments were performed using Two-Way ANOVA or Kruskal–Wallis test with post hoc Bonferroni correction for multiple comparisons. Values are presented as ± standard deviation (SD) of the mean. Fluorescence incorporation following treatment with FM1-43 was quantified according to [19] using ImageJ. An unpaired T-test was used to compare the means between treatment groups. p < 0.05 was considered significant. Qx treatments were compared to vehicle-only (control) animals.

| Compound | Aqueous solubility (Kinetic solubility assay) | solubility at 6 h (Kinetic solubility assay) | Metabolic activity throughout all concentrations (HEI-OC1 cells) | Proliferative effect vs Qx-70 and untreated cells (HEI-OC1 cells) | Apoptosis (TUNEL) in neuromasts [1] | OHC and IHC numbers vs control, 48–72 h (mouse organ of Corti HCs) | Supernumerary M7a-positive cells vs control, 24 h (mouse organ of Corti HCs) | HC numbers in the apex (mouse organ of Corti HCs) |
| --- | --- | --- | --- | --- | --- | --- | --- | --- |
| c1ccc2nc(N3CCOCC3)cnc2c1 [Qx-294, 2-(morpholine)-quinoxaline] | low aqueous solubility | ~0.551 µg/mL (≈ 2.56 µM) | elevated yet stable metabolic activity | significant and reproducible proliferative effects greater than those of Qx-70 and the untreated cells | no signs of apoptosis | significant increases in both OHC and IHC numbers | not statistically significant | variable, non-significant trend towards more HCs |
| c1ccc2nc(N3CCCC3)cnc2c1 [Qx-301, 2-(pyrrolidine)-quinoxaline] | low aqueous solubility | 0.365 ± 0.028 µg/mL (≈ 1.83 µM) | elevated yet stable metabolic activity | significant and reproducible proliferative effects greater than those of Qx-70 and the untreated cells | no signs of apoptosis | significant increases in both OHC and IHC numbers | not statistically significant | consistent, significant increase in apical HCs |
